Data on three molecules can be found in article PMC12006963, “Application of Deuterium in an M1 Positive Allosteric Modulator Back-Up Program: The Discovery of VU6045422” (ACS Chemical Neuroscience, 2025).

Broadly, the IC50 is the midpoint of a concentration-inhibition curve. As usually defined, the Kp is the ratio of the level in a tissue or fluid to that in plasma or blood.

Data set [1] in a line: Predicted hepatic clearance, hepatic microsomes (cyno). Type of data set: in vitro ADME.
For a further data set, the target named is T1, CYP 1A2 (Homo sapiens, UniProt P05177).
T1 sequence (P05177 1-516): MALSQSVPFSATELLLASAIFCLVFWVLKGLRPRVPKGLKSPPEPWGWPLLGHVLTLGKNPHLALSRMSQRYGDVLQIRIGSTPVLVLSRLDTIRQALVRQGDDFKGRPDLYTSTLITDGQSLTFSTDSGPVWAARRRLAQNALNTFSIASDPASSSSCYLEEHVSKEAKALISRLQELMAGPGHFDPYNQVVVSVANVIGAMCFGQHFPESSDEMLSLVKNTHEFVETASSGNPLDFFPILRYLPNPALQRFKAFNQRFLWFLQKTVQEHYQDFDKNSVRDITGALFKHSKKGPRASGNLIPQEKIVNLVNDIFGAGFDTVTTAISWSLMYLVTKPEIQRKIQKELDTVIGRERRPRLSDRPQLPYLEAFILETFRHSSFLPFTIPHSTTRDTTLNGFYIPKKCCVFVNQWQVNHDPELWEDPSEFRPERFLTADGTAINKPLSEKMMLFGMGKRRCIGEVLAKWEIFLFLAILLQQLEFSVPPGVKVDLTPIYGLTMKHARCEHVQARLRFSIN
Nature of the data set: CYP inhibition 1A2. Type of data set: in vitro ADME. The source says: (§1) Table 1 Pharmacology and In Vitro DMPK Profiles of M1 PAMs 1, 3, and 5 | column: 1; 3; 5

A further data set addresses CYP 3A4 (Homo sapiens, UniProt P08684). Nature of the data set: CYP inhibition 3A4. Format: in vitro ADME.
From the text: as §1

The nature of data set [2]: Hepatocyte metabolite identification (dog). Format: in vitro ADME. The conditions noted are these: dog hepatocytes, 4 h incubation. How it is done: Prior to full characterization of deuterated analogues 3 and 5, they were incubated in rat, dog, monkey, and human hepatocytes, along with 1, to determine the amount of parent remaining, as well as the degree of undesired oxidative metabolites 2, 4, and 6 (Figure 2). […] For the gem-dideutero congener 3, metabolic stability was improved in vitro. […] Thus, in hepatocytes in vitro, the kinetic isotope effect engendered greater metabolic stability of the labile hot spot on the lactam. It remained to be seen if this effect would translate in vivo, but we first had to assess the impact of the deuterated analogues on molecular pharmacology, in vitro DMPK, standard low-dose in vivo DMPK and, if warranted, in vivo efficacy in a rat novel object recognition (NOR) behavioral assay.

Data set [3] in a line: Brain to plasma ratio in rat. Type of data set: in vivo. The conditions noted are these: male, Sprague-Dawley, brain and plasma, intravenous, 0.2 mg/kg, rat (SD); for Kp at 15 min: brain/plasma; for Kp uu at 15 min: unbound brain/unbound plasma. How it is done:
where Qh (hepatic blood flow, mL/min/kg) is 21 (human) or 70 (rat).
LC/MS/MS Bioanalysis of Samples from Plasma Protein Binding and Intrinsic Clearance […]
Samples were analyzed on a Thermo Electron TSQ Quantum Ultra triple quad mass spectrometer (San Jose, CA) via electrospray ionization (ESI) with two Themo Electron Accella pumps (San Jose, CA), and a Leap Technologies CTC PAL autosampler (Carrboro, NC). Analytes were separated by gradient elution on a dual column system with two Thermo Hypersil Gold (2.1 x 30 mm, 1.9 µm) columns (San Jose, CA) thermostated at 40 °C. HPLC mobile phase A was 0.1% formic acid in water and mobile phase B was 0.1% formic acid in acetonitrile. The gradient started […]
for 0.2 min; returned to 10% B in 0.1 min. The total run time was 1.3 min and the HPLC flow rate was 0.8 mL/min. While pump 1 ran the gradient method, pump 2 equilibrated the alternate column isocratically at 10% B. Compound optimization, data collection, and processing was performed using Thermo Electron's QuickQuan software (v2.3) and Xcalibur (v2.0.7 SP1).
In vivo DMPK experimental:
Determination of brain to plasma ratio:
All animal study procedures were approved by the Institutional Animal Care and Use Committee and were conducted in accordance with the National Institutes of Health regulations of animal care covered in Principles of Laboratory Animal Care (National Institutes of Health). All rats were fasted overnight prior to testing.
For determination of the brain over plasma ratio (Kp), compounds were formulated in 8% ethanol, 32% PEG400 and 60% DMSO (v/v/v) and administered as a single 0.2 mg/kg IV dose (1 mL/kg) to male, Sprague Dawley rats (n = 1) via injection into a surgically-implanted jugular vein catheter. At 15 min post dosing, blood sample was collected into chilled, K2EDTA anticoagulant-fortified tube and immediately placed on wet ice. The blood sample was then centrifuged (1700 rcf, 5 minutes, 4 °C) to obtain plasma sample. At the same post-administration time point, whole brain sample was obtained by rapid dissection, rinsed with PBS, and immediately frozen in individual tissue collection box (dry ice). All brain and plasma samples were stored at -80 °C until […]
Sample Analysis: Concentrations in plasma and brain homogenates were quantified by liquid chromatography tandem mass spectrometry (LC-MS/MS). Whole brains were homogenized in 3 mL of 70:30 IPA:water in a mini bead beater for 3 min, and centrifuged at 3,500 g for 5 min. 5 uL of the supernatant was diluted in 15 uL of blank plasma for quantification of the analytes. Plasma samples were centrifuged at 3,500 g for 5 min. A standard curve was generated by diluting the analytes DMSO stocks with blank plasma to obtain a final concentration of 10,000 ng/ml followed by a serial dilution down to 0.5 ng/ml. Quality controls were generated by a serial dilution of the 5,000 ng/ml standard curve solution in blank plasma to obtain 3 concentrations of 500, 50, and 5 ng/ml. 20 uL of brain diluted in plasma, plasma, blank plasma, standard curve and QC samples were loaded in a V-bottom 96-well plate. 120 uL of acetonitrile containing 0.05 uM carbamazepine (internal standard) was added to each well and the plate was centrifuged at 3,500 g for 5 min. 60 uL of the supernatant of each well (protein free) was transferred to a new 96-well plate containing 60 uL of water. The plates were sealed for analysis by LC-MS/MS.
Plasma and brain tissue samples originating from in vivo studies were analyzed by electrospray ionization using an AB Sciex Q-TRAP 5500 (Foster City, CA) that was coupled to a Shimadzu LC-20AD pump (Columbia, MD) and a Leap Technologies CTC PAL auto-sampler (Carrboro, NC). Analytes were separated by gradient elution using a C18 column (3 x 50 mm, 3 mm; Fortis Technologies Ltd, Cheshire, UK) that was thermostated at 40 °C. HPLC mobile phase A was 0.1% formic acid in water (pH unadjusted); mobile phase B was 0.1% formic acid in acetonitrile (pH […]

Bounds are passed on as bounds.

CYP 3A4, sequence (P08684 whole entry): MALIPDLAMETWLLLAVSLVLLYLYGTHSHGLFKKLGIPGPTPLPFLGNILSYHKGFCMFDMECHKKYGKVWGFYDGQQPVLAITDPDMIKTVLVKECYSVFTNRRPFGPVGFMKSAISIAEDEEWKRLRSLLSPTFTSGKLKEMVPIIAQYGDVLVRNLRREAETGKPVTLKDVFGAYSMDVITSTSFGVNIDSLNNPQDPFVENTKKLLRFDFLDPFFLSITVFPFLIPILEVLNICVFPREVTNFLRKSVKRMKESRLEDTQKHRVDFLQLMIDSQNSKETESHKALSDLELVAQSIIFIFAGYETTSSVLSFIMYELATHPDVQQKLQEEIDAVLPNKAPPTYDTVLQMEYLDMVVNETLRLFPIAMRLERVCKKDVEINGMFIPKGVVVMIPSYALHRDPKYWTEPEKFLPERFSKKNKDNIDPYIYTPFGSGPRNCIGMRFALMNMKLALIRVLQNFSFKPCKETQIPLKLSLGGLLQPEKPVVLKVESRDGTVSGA

Take `Cn1cc2c(-c3cc(F)c(CN4Cc5ncccc5C4=O)c(F)c3)cccc2n1` [compound 1]: the “Predicted CLhep” value in data set [1] is listed as 5.6 mL/min/kg. The IC50 against CYP 1A2 came to 14.2 µM. The molecule also gave an IC50 against CYP 3A4 of over 30 µM. Besides, in data set [2], the “% Total Peak Area, parent remaining” value is listed as 71.7%. Further, in data set [3], the Kp at 15 min was found to be 0.77 and the Kp uu at 15 min came to 1.3.

`[2H]C1([2H])c2ncccc2C(=O)N1Cc1c(F)cc(-c2cccc3nn(C)cc23)cc1F` [compound 3]: the “Predicted CLhep” value in data set [1] is 27.4 mL/min/kg. The IC50 against CYP 1A2 is over 30 µM. The same molecule gave an IC50 at CYP 3A4 of over 30 µM. The “% Total Peak Area, parent remaining” value in data set [2] is listed as 91.9%. In data set [3], the Kp at 15 min came out at 0.63 and the Kp uu at 15 min amounted to 0.57.

Consider `[2H]C1([2H])c2ncccc2C(=O)N1Cc1c(F)cc(-c2cccc3nn(C([2H])([2H])[2H])cc23)cc1F` [compound 5], for which, in data set [1], the “Predicted CLhep” value is on record as 27.5 mL/min/kg. Further, the IC50 at CYP 1A2 was over 30 µM. The same molecule showed an IC50 against CYP 3A4 of 28.6 µM. In data set [2], the “% Total Peak Area, parent remaining” value is listed as 87.8%. In addition, in data set [3], the partition ratio (Kp) at 15 min came to 1.1 and the Kp uu at 15 min is 1.5.
